The source of these data is US20100292231A1, “Indazole Compounds for Treating Inflammatory Disorders, Demyelinating Disorders and Cancers” (priority 2007, published 2010).

Bounds are passed on as bounds.

The target of one assay is T1, FLT3 (Homo sapiens, UniProt P36888).
T1 construct: purchased Invitrogen (SelectScreen platform)
T1 sequence (P36888 27-993): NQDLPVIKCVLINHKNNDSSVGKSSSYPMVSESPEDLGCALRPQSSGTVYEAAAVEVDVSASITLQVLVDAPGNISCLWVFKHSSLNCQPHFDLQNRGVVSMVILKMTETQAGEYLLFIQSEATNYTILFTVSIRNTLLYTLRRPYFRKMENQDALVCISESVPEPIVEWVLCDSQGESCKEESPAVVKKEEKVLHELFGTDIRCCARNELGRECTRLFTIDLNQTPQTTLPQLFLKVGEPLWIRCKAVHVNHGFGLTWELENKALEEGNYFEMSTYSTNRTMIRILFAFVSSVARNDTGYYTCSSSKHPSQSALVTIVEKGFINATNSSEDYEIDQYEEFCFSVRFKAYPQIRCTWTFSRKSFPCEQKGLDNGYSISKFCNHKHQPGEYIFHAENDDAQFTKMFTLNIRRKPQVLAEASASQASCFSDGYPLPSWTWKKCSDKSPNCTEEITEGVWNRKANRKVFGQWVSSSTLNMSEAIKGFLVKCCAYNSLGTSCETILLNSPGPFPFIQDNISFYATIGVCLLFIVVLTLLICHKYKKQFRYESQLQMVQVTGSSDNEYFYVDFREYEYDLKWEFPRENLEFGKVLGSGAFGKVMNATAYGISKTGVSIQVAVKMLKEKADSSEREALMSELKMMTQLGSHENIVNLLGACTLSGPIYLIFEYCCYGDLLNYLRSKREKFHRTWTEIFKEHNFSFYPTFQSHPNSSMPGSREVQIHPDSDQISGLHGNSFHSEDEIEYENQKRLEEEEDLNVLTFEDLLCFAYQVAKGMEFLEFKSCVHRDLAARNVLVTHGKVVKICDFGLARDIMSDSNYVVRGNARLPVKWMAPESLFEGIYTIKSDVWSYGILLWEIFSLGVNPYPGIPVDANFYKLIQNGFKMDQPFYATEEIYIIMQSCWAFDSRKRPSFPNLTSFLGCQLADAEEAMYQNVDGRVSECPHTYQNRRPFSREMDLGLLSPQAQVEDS
The assay can be described thus: Kinase EC50 (10 pt curve or estimate, ATP Kmapp). As to conditions: from 10 pt curve or estimate based on 1 μm inhibition assay at ATP Kmapp. The class given is biochemical.

The subject of another assay is MdaMb231 cells. The assay can be described thus: in vitro scratch (cell migration) assay. It is filed as cell-based. As to conditions: for concentration resulting in inhibition of cell motility / migration: Mda231 cells, after 48 hrs; for Migration: Table 5 summary, concentration inhibiting migration. How it is done: The in vitro scratch assay is used to determine the ability of cancer cells to migrate into and close an open wound; such migration is considered to have a role in metastasis of tumor cells.
Cells were plated in gelatin-coated 6-well plates and grown until a confluent monolayer was formed. When confluent, a straight scratch was made with a p200 pipette tip, cells were washed and compounds were added at concentrations of 1 μM, 2.5 μM, 5 μM, 10 μM and 20 μM. Images were taken at specific reference points at 0, 24 and 48 hours with Zeiss Axiovert 40 CFL microscope and Axiocam MRc5 camera and the ability of the cells to move in and close the wound was measured.
The data is presented in FIG. 1, which is a bar plot of percent cell migration into the “wound” in each sample (measured with respect to the control) and FIG. 2, which is a plot of percent wound confluence as a function of time (measured with respect to the control).

In assay [1] the test system is Raw264.7 (murine macrophage-like cells). Put plainly: sulforhodamine B (SRB) cytotoxicity assay. The class given is cell-based. As to conditions: Mus musculus, RAW264.7, 144 h; 25 μM highest concentration, diluted 1:5; 6 days; read-out: IC50 Measured Against Raw264.7 Cell Line.
Assay [2] concerns U266B1 (multiple myeloma) cell line. The assay can be described thus: sulforhodamine B (SRB) cytotoxicity assay. It is filed as cell-based. As to conditions: 72 h, 100 μM highest concentration, diluted 1:5, 3 day incubation, read-out: IC50 Measured Against U266B1 Cell Line. How it is done: (§1) The cytotoxic activity of compounds listed in Table 5 was determined with a sulforhodamine B (SRB) assay on panel of cell lines, including MdaMb231 (breast cancer), MV4-11 (leukemia), PC-3 (prostate cancer), U266B1 (multiple myeloma), C7 macrophages, and Raw264.7 (murine macrophage-like cells).
(§2) Cells growing in relevant media were seeded in a 96 well plate and left to adhere overnight. Cells were plated at appropriate cell densities: • MV4-11: 20.000 cells/well • Mda-Mb231: 6000 cells/well • C7: 10.000 cells/well • Raw264.7: 2000 cells/well • PC-3: 6000 cells/well • U266B1: 40.000 cells/well.
(§3) Cells were incubated before the compounds were added the next day to a top concentration of 100 μM and serially diluted 1 in 5 across the plate. After a 3 day incubation period (6 days for C7 and Raw264.7) cells were fixed with trichloroacetic acid (TCA) to end concentration of 10% for adherent cells and 16% end concentration for suspension cells for 1 hr at 4° C. before washing. Cells were stained with 0.4% sulforhodamine-B dye (SRB) in 1% acetic acid for 30 minutes and washed in 1% acetic acid. To solubilize the dye 100 μl 10 mM Tris, pH 10.5 was added and the absorbance was read at 564 nm. IC50 values were generated using the SoftMAX Pro™ software. The data is presented below in Tables 6 through 11.
In general terms: Sulforhodamine B stains cellular protein and so reports cell mass.

Assay [3] concerns PC-3 (prostate cancer) cell line. Put plainly: sulforhodamine B (SRB) cytotoxicity assay. The class given is cell-based. As to conditions: Homo sapiens, PC-3, 72 h; 100 μM highest concentration, diluted 1:5; 3 day incubation; read-out: IC50 Measured Against PC-3 Cell Line. As for the experimental part:
as §1, §2, §3

For the next assay, the system named is C7 macrophages. The assay can be described thus: sulforhodamine B (SRB) cytotoxicity assay. The class given is cell-based. As to conditions: Macrophage, 144 h; 5 μM highest concentration, diluted 1:4; 6 day assay; read-out: IC50 Measured Against C7 Cell Line (6 day assay). As for the experimental part:
as §1, §2, §3

In general, EC50 refers to the concentration that produces a half-maximal response. For orientation: IC50 means the concentration that gives 50% inhibition. In the case of `O=c1c2c(NCCCN3CCOCC3)ccc3ncn(c4ccc5[nH]ncc5c14)c32` [(X)], the EC50 on FLT3 was 11 nM. Further, the “concentration resulting in inhibition of cell motility / migration” value with MdaMb231 cells came out at 5 µM. Also, the Migration with MdaMb231 cells was 5 μm. For the same molecule, the values for the 50% inhibitory concentration (IC50) in assay [1], in assay [2] and in assay [3] were 2.7 nM, 7060 nM and 17300 nM, respectively.
`CN(C)CCNc1ccc2ncn3c4ccc5[nH]ncc5c4c(=O)c1c23` [(XII)]: the EC50 on FLT3 was 5 nM. For the same molecule, in the assay on MdaMb231 cells, the “concentration resulting in inhibition of cell motility / migration” value amounted to 5 µM and the Migration is greater than 5 μm. Further, in assay [2], the IC50 came to 6110 nM.
For `CC(CCN1CCOCC1)Nc1ccc2ncn3c4ccc5[nH]ncc5c4c(=O)c1c23` (stereo not drawn) [(XVI)], the EC50 at FLT3 is 9 nM. In the assay on MdaMb231 cells, the “concentration resulting in inhibition of cell motility / migration” value was found to be 5 µM. Moreover, in the assay on MdaMb231 cells, the Migration stood at 1 μm. The figures for the IC50 in assay [1], in assay [2] and in assay [3] were 25.7 nM, 14500 nM and 8920 nM, respectively.
Consider `CN1CCN(CCCNc2ccc3ncn4c5ccc6[nH]ncc6c5c(=O)c2c34)CC1` [(XVII)], for which, at FLT3, the EC50 is 15 nM. The “concentration resulting in inhibition of cell motility / migration” value with MdaMb231 cells turned out to be 5 µM. The Migration with MdaMb231 cells is 5 μm. The results for the IC50 (in assay [1]; with C7 macrophages; in assay [3]) were 2.6 nM, 360 nM and 9650 nM, respectively.
As for `CN(C)CCCNc1ccc2ncn3c4ccc5[nH]ncc5c4c(=O)c1c23` [Compound (IV)], the EC50 at FLT3 was 14 nM. Further, the “concentration resulting in inhibition of cell motility / migration” value in the assay on MdaMb231 cells is 5 µM. For the same molecule, the Migration in the assay on MdaMb231 cells is listed as 1 μm. For the same molecule, the IC50 in assay [2] is 6940 nM; in assay [3] it was 2970 nM.
As to `CCN(CC)CCCNc1ccc2ncn3c4ccc5[nH]ncc5c4c(=O)c1c23` [Compound (XV)], the EC50 at FLT3 is 11 nM. Also, in the assay on MdaMb231 cells, the “concentration resulting in inhibition of cell motility / migration” value came to 1 µM and the Migration came to 1 μm. The IC50 with C7 macrophages is 13 nM. Besides, the IC50 in assay [3] was 32800 nM.
On to `CCN(CC)CCNc1ccc2ncn3c4ccc(O)cc4c(=O)c1c23` [Symadex, 5-(2-(diethylamino)ethylamino)-8-hydroxy-6H-imidazo[4,5,1-de]acridin-6-one, reference compound], for which, on FLT3, the EC50 was 40 nM. In addition, in the assay with MdaMb231 cells, the “concentration resulting in inhibition of cell motility / migration” value stood at 10 µM and the Migration was 10 μm. In addition, the IC50 in the assay on C7 macrophages was 15 nM.
